{"source": "paper PMC4695662", "about": "(BioMed Research International, 2015)", "key": {"Oat1 and Oat3 [1]": {"system": "Oat1 and Oat3", "assay": "PAH uptake by mice renal slices after treatment", "type": "in vivo", "details": "2 mM PAH, 20 min, 37°C, slices from mice treated twice a day for five days; in words", "method": "The uptake of PAH by mice renal slices was investigated using the procedures described by Henderson and Lindup. Briefly, mice were executed, and the kidneys were immediately harvested, decapsulated, and placed in an ice-cold oxygenated rinse PBS (pH 7.4). Renal slices (weight 10–20 mg/slice) were cut freehand with Gillette valet strip blades to about 0.2 inches in length (Sabre International Products Ltd., Reading, UK). Slices of one kidney were preincubated for 5 min at 37°C and incubated in a 12-well plate with 1 mL of oxygenated PAH-buffer which consisted of 2 mM PAH, 97 mM NaCl, 40 mM KCl, 0.74 mM CaCl2, and 7.5 mM sodium phosphate-chloride buffer in each well. The uptake study was carried out at 37°C in the shaking bath. After incubating for 20 min, each slice was rapidly removed from the PAH-buffer, immediately inactivated the proteins with trichloroacetic acid, was washed in ice-cold saline, was blotted on filter paper, was weighed, and then was homogenized at a ratio of 3 mL/g wet weight. The following operations were the same as described in Section 2.6."}, "Oat1 and Oat3 [2]": {"system": "Oat1 and Oat3", "assay": "Accumulation of PAH in kidney tissue", "type": "in vivo, mice", "details": "all sampling times after i.v. PAH, compared with C-1 (p < 0.01); in words", "method": "The mice renal homogenate was prepared by Shihana et al. protocol. Each right kidney was cut into small pieces, which were put into a glass homogenizing tube containing PBS (200 mM sucrose, 137 mM NaCl, 2.7 mM KCl, 10 mM Na2HPO4, and 2 mM NaH2PO4; pH 7.4) at a ratio of 8 mL/g wet weight and then were homogenized with a motor-driven Teflon pestle (1000 rpm/min) and spun down for 30 min at 20,000 ×g. The supernatant was isolated and then stored at −20°C until determination. The kidney homogenates were prepared from each group which was removed at 1, 5, 10, 20, and 30 min after i.v. PAH. Protein content of kidney homogenates was quantified using the Lowry Folin phenol reagent (Nanjing Jiancheng Bioengineering Institute, Ltd., China, Lot. 130918). The concentrations of PAH in kidney homogenate were determined the same as that in the sera."}, "Oat3 mRNA": {"system": "Oat3 mRNA", "assay": "Oat3 mRNA expression in kidney by real-time PCR", "type": "in vivo", "details": "renal cortex of mice", "method": "(§1) Total RNA was extracted using Trizol reagent from renal cortical tissues according to the manufacturer's instructions and RNA concentration and purity were evaluated by measuring the ratio of A260 nm/A280 nm. First-strand cDNA was generated by adding 1 μg total RNA; 2 μL 5x gDNA Eraser Buffer; 1 μL gDNA Eraser; 5 μL RNase Free dH2O (step 1: 42°C, 2 min for genomic DNA elimination reaction); […]; 1 μL Prime Script RT Enzyme Mix I; 1 μL RT Primer Mix; 4 μL RNase Free dH2O; and 10 μL reaction solution from step 1, which were used to reach a total reaction volume of 20 μL. The condition of reverse-transcription (RT) reaction was as follows, 15 min at 37°C and 85°C for 5 s, and stored at 4°C. […]\n(§2) The real-time quantitative PCR was conducted in ABI 7500 (Applied Biosystems, USA) and the cycling program was set at 1 cycle of predenaturation at 95°C for 30 s and then 40 cycles at 95°C for 15 s, 56°C for 30 s, and 72°C for 31 s. […] Quantification of the target cDNAs in all samples was normalized to GAPDH […] (Cttarget − CtGAPDH = ΔCt) and the difference in expression for each target cDNA in the investigated groups was expressed to the amount in the water control group (ΔCttreated − ΔCtcontrol = ΔΔCt). Fold changes in target gene expression were determined by taking 2 to the power of this number (2^−ΔΔCt)."}, "Oat1 mRNA": {"system": "Oat1 mRNA", "assay": "Oat1 mRNA expression in kidney by real-time PCR", "type": "in vivo", "details": "renal cortex of mice", "method": "as §1, §2"}, "Oat1 and Oat3 [3]": {"system": "Oat1 and Oat3", "assay": "PAH pharmacokinetic studies in mice sera after oral treatment with investigational samples", "details": "in words, versus control", "procedure": "All mice were given standard mice chows and pure water ad libitum and housed at 20~26°C.\nOn the experiment day, 60 min after the last administration of investigational samples, all mice were single i.v. PAH (30 mg/kg B.W., aqueous solution), respectively, according to the protocol of Bertani et al. [16] and blood samples were collected from 10 mice/group by euthanization in each time point at 1.0, 2.5, 5.0, 7.5, 10.0, 20.0, and 30.0 min after PAH injection. Blood samples were centrifuged at 2000 ×g for 5 min. The obtained sera were stored at −20°C until measurement.\nThe concentration of PAH in sera was determined according to Saikan and Kiguchi [19] method. The sera concentration versus time curve for PAH, for each individual animal, was fitted with PK software DAS 2.0. The data were fitted to a biexponential curve. The choice of the best fit was based on the determination of coefficient values (R ^2) and LSD test [20]. All fits should have R ^2 values > 0.98. […] Concentration of PAH in serum was measured using the method described by Di Giusto et al. [21]."}}, "data": [{"smiles": "[Cl][Hg][Cl]", "note": "[HgCl2]", "values": [{"measurement": "Active uptake of PAH by renal slices", "setting": "Oat1 and Oat3 [1]", "value": "interfered with the PAH uptake"}, {"measurement": "PAH accumulations in the kidneys", "setting": "Oat1 and Oat3 [2]", "value": "observably increased"}, {"measurement": "Decrease in Oat3 mRNA level", "setting": "Oat3 mRNA", "value": 40, "unit": "%"}, {"measurement": "Reduction of Oat1 mRNA expression", "setting": "Oat1 mRNA", "value": 40, "unit": "%"}, {"measurement": "Change of area under the curve (AUC0–30 min) of serum PAH", "setting": "Oat1 and Oat3 [3]", "value": "significant increase"}, {"measurement": "Change of total volume of distribution (VdT) of serum PAH", "setting": "Oat1 and Oat3 [3]", "value": "obvious decrease"}]}]}
